Test results taken from patent US5475015A, “Benzimidazole derivatives, their preparation and pharmaceutical use” (NeuroSearch A/S, priority 1993, dated 1995).

Assays:
[1] = test system: cocaine induced hypermotility; test: Cocaine motility test; type: in vivo, NMRI mice
Protocol: The compound, 5-trifluoromethyl-1-(5-trifluoromethyl-2-hydroxyphenyl)-1,3-dihydro-2H-benzimidazole-2-one, has been studied in the cocaine motility test. Cocaine induces hypermotility due to an inhibition of dopamine reuptake. The test is recognized as a test predicting anti-psychotic activity.
Method: Two female NMRI mice (20-25 g) are placed in each test box (normal transparent plexiglas cage, w, l, h=21×39×19 cm ) in the test room for at least 16 hours with food and water ad libitum before the test in order for the animals to habituate to the situation. The test compound is administered i.p. 15 min before saline or 25 mg/kg cocaine i.p. to 32 mice (16 boxes) per dose. Food and water are withdrawn, and the motility is measured as the number of interrupted infrared photo-beams (8 per box placed 5 cm apart and 3 cm over the bottom of the cage) in the next 120 min.

Cl- channels = test: Single channel experiments, inside-out patches of cerebellar granule cell membrane: Cl- channels; type: cell-based; conditions: 3 μM
Protocol: (§1) All experiments were performed with patch-clamp technique (Hamill et al., Pflugers Arch. 391, 85-100 (1981)). The ion composition of the internal solution was (in mM) 140 KCl, 1 CaCl2, 1 MgCl2, 2 EGTA, 10 HEPES and the external solution contained 140 NaCl, 4 KCl, 2 CaCl2, 1 MgCl2 and 10 HEPES.
(§2) In inside-out patches of cerebellar granule cell membrane single BK channels were activated by for example 5-trifluoromethyl1-(5-trifluoromethyl-2-hydroxyphenyl)-1,3-dihydro-2H-benzimidazole-2-one (3 μM). […] No effect was found on the delayed rectifier K+ channel or on the Cl- channels also present in the patches.

BK channel [2] = test: Single channel experiments, inside-out patches of cerebellar granule cell membrane; type: cell-based; conditions: 3 μM
Protocol: as §1

[3] = test system: delayed rectifier K+ channel; test: Single channel experiments, inside-out patches of cerebellar granule cell membrane: delayed rectifier; type: cell-based; conditions: 3 μM
Protocol: as §1, §2

Guinea pig trachea = test: Trachea experiment (vagus nerve stimulated pressure increase)
Excerpt: The compound, 5-trifluoromethyl-1-(5-trifluoromethyl-2-hydroxyphenyl)-1,3-dihydro-2H-benzimidazole-2-one, has been studied in a trachea model in which relaxation predicts anti-asthmatic potential.
Method: Guinea pig trachea is isolated with intact vagus nerve. Tubes are inserted into both ends and ligated tightly so the pressure in the fluid-filled lumen can be monitored. Electrical stimulation of the vagus nerve leads to a contraction and a pressure increase. The difference in electrically-stimulated pressure increase in the absence and presence of compound is measured.

[4] = test system: calf aortic smooth muscle cells; test: Whole-cell current clamp recording of membrane potential; type: cell-based; conditions: 10 μM to the bath
Protocol: as §1
The membrane potential of calf aortic smooth muscle cells was determined in whole-cell recordings using current clamp mode (HEKA EPC-9 patch-clamp amplifier). Due to the high-resistance seal and the large size of these cells the recorded membrane potential stayed stable for periods of 30-60 min, although at somewhat depolarized values (-58--22 mV). Administration of for example 1-(5-trifluoromethyl-2-hydroxyphenyl)-5-trifluoromethyl-1,3-dihydro-2H-benzimidazol-2-one (10 μM) to the bath hyperpolarized the cells after a delay of 1-3 min. The average hyperpolarization was -20 mV (SD=-9 mV, n=7), and the effect was largest in the cells being most depolarized prior to administration of the compound.
The equilibrium potential for K+, Cl-, and Na+ in these experiments were -90 mV, 0 mV, and +90 mV, respectively (cf. ion composition above). Thus, since potassium is the only ion having a reversal potential more negative than the resting membrane potential the observed hyperpolarization induced by the test compound must be explained through an increased potassium conductance.

BK channel [5] = test: Single channel experiments in cultured bovine aortic smooth muscle cells; type: cell-based; conditions: 3 μM
Protocol: as §1

[6] = test system: acetylcholine-contracted guinea-pig ileum; test: Guinea-pig ileum experiment (relaxation of acetylcholine-contracted ileum)
Protocol: The compound, 5-trifluoromethyl-1-(5-trifluoromethyl-2-hydroxyphenyl)-1,3-dihydro-2H-benzimidazole-2-one, has been studied for its ability to relax acetylcholine-contracted guinea-pig ileum. The smooth muscle cells of the ileum express many BK channels and the model predicts relaxing effects on the gastrointestinal or urogenital tracts. […] The effect of 30 μM compound is reversed by the BK channel blocker TEA+ (1-3 mM), confirming that the relaxing effect is mediated via BK channels.
Method: Ileum from guinea-pigs are isolated and mounted in an isometric contraction chamber. It is bathed in a physiological Krebs solution at 98° F. The ileum is precontracted with increasing concentrations of acetylcholine (0.015-5.0 μM). The contractions are reversed by including the compound in the bathing solution.

**Q.** `O=c1[nH]c2cc(C(F)(F)F)ccc2n1-c1cc(C(F)(F)F)ccc1O` [Example 6, 1-(2-Hydroxy-5-trifluoromethylphenyl)-5-trifluoromethyl-1,3-dihydro-2H-benzimidazol-2-one] was tested. Which “effect of compound by itself on motility” value ([1]; 30 mg/kg, without cocaine) did it give?
**A.** weak hyperactivity

**Q.** And the “antagonism of cocaine induced hypermotility” value ([1]; 1-10 mg/kg i.p. 15 min before 25 mg/kg cocaine i.p., mice, motility over 120 min)?
**A.** antagonizes cocaine induced hypermotility

**Q.** What about the “effect on the Cl- channels” value (Cl- channels) of the same molecule?
**A.** No effect

**Q.** What about the “increase of the open probability of the BK channel” value (BK channel [2]) of the same molecule?
**A.** several hundred percent

**Q.** What about the “effect on the delayed rectifier K+ channel” value [3] of the same molecule?
**A.** No effect

**Q.** And the “potentiation of the relaxing effect of lemakalim” value (Guinea pig trachea; 10 μM compound)?
**A.** 10 x

**Q.** And the relaxation of trachea (Guinea pig trachea; 10-100 μM)?
**A.** relaxes trachea in a dose-dependent way

**Q.** What about the “delay before hyperpolarization of the cells” value [4] of the same molecule?
**A.** 1 to 3 min

**Q.** And the average hyperpolarization ([4]; current clamp, SD=-9 mV, n=7)?
**A.** -20 mV

**Q.** And the “activation of the BK channel” value (BK channel [5])?
**A.** significantly activated

**Q.** What about the “effect of BK channel blocker TEA+ on the relaxing effect” value ([6]; 30 μM compound, TEA+ 1-3 mM) of the same molecule?
**A.** reversed

**Q.** And the “relaxation of acetylcholine-contracted ileum” value ([6]; 3-30 μM)?
**A.** relaxes the ileum in a dose-dependent way
